System: 496974-208-R-J2-PDC complex spheroids, growth % test/control
Test: Anticancer human tumor 496974-208-R-J2-PDC patient-derived pancreatic carcinoma cell line growth inhibition [CLK]
Details: for IC50: curve of first compound; for viability, T/C: stronger effect = lower value; active = viability on the fitted dose curve at most 10% of control; inactive = the rest
Outline: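 Multi-cell-type spheroids combined patient-derived tumor cells with HUVEC endothelial cells and human mesenchymal stem cells. Paired agents were dosed in half-log steps down from about clinical Cmax, or from 10 microM where Cmax was unknown.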

[1] = second compound 0.0316 µM, first compound 0.0316 µM
[2] = second compound 0.0316 µM, first compound 0.1 µM
[3] = second compound 0.0316 µM, first compound 0.316 µM
[4] = second compound 0.0316 µM, first compound 1 µM
[5] = second compound 0.0316 µM, first compound 3.16 µM
[6] = second compound 0.0316 µM, first compound 10 µM
[7] = second compound 0.1 µM, first compound 0.0316 µM
[8] = second compound 0.1 µM, first compound 0.1 µM
[9] = second compound 0.1 µM, first compound 0.316 µM
[10] = second compound 0.1 µM, first compound 1 µM
[11] = second compound 0.1 µM, first compound 3.16 µM
[12] = second compound 0.1 µM, first compound 10 µM
[13] = second compound 0.316 µM, first compound 0.0316 µM
[14] = second compound 0.316 µM, first compound 0.1 µM
[15] = second compound 0.316 µM, first compound 0.316 µM
[16] = second compound 0.316 µM, first compound 1 µM
[17] = second compound 0.316 µM, first compound 3.16 µM
[18] = second compound 0.316 µM, first compound 10 µM
[19] = second compound 1 µM, first compound 0.0316 µM
[20] = second compound 1 µM, first compound 0.1 µM
[21] = second compound 1 µM, first compound 0.316 µM
[22] = second compound 1 µM, first compound 1 µM
[23] = second compound 1 µM, first compound 3.16 µM
[24] = second compound 1 µM, first compound 10 µM
[25] = second compound 3.16 µM, first compound 0.0316 µM
[26] = second compound 3.16 µM, first compound 0.1 µM
[27] = second compound 3.16 µM, first compound 0.316 µM
[28] = second compound 3.16 µM, first compound 1 µM
[29] = second compound 3.16 µM, first compound 3.16 µM
[30] = second compound 3.16 µM, first compound 10 µM
[31] = second compound 10 µM, first compound 0.0316 µM
[32] = second compound 10 µM, first compound 0.1 µM
[33] = second compound 10 µM, first compound 0.316 µM
[34] = second compound 10 µM, first compound 1 µM
[35] = second compound 10 µM, first compound 3.16 µM
[36] = second compound 10 µM, first compound 10 µM
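Note: spheroids exposed to the drugs for 7 days before readout.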
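Throughout, for viability, T/C: 100% = DMSO vehicle control wells.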

C#Cc1c(F)ccc2cc(O)cc(-c3ncc4c(N5CC6CCC(C5)N6)nc(OCC56CCCN5CC(F)C6)nc4c3F)c12 (stereo not drawn) + CN1CCN(c2cc(C(=O)Nc3cc4cc(-c5cnn(C)c5)ccc4cn3)ccn2)CC1
< 31.6 nM: IC50 (second compound 0.1 µM) | IC50 (second compound 0.316 µM) | IC50 (second compound 1 µM) | IC50 (second compound 3.16 µM) | IC50 (second compound 10 µM)
active: viability, T/C [13] 6.34% | viability, T/C [14] 7.18% | viability, T/C [15] 5.55% | viability, T/C [16] 5.05% | viability, T/C [17] 4.85% | viability, T/C [18] 4.28% | viability, T/C [19] 0.24% | viability, T/C [20] 1.36% | viability, T/C [21] 0.31% | viability, T/C [22] 0.34% | viability, T/C [23] 0.22% | viability, T/C [24] 0.33% | viability, T/C [25] 0.26% | viability, T/C [26] 1.39% | viability, T/C [27] 0.4% | viability, T/C [28] 0.27% | viability, T/C [29] 0.23% | viability, T/C [30] 1.06% | viability, T/C [31] 0.28% | viability, T/C [32] 0.2% | viability, T/C [33] 0.22% | viability, T/C [34] 0.2% | viability, T/C [35] 0.21% | viability, T/C [36] 1.87%
49.4 nM: IC50 (second compound 0.0316 µM)
inactive: viability, T/C [1] 54.9% | viability, T/C [2] 41.2% | viability, T/C [3] 39.9% | viability, T/C [4] 37.2% | viability, T/C [5] 33.5% | viability, T/C [6] 35.1% | viability, T/C [7] 37.7% | viability, T/C [8] 34.7% | viability, T/C [9] 30.2% | viability, T/C [10] 25.8% | viability, T/C [11] 25.2% | viability, T/C [12] 22.8%

CC(CO)NC(=O)c1cc(-c2ccc(Cl)cc2)nn(-c2cnn(C)c2)c1=O (stereo not drawn) + CN1CCN(c2cc(C(=O)Nc3cc4cc(-c5cnn(C)c5)ccc4cn3)ccn2)CC1
> 10000 nM: IC50 (second compound 0.0316 µM) | IC50 (second compound 0.1 µM)
< 31.6 nM: IC50 (second compound 0.316 µM) | IC50 (second compound 1 µM) | IC50 (second compound 3.16 µM) | IC50 (second compound 10 µM)
active: viability, T/C [13] 6.47% | viability, T/C [14] 7.73% | viability, T/C [15] 7.09% | viability, T/C [16] 6.92% | viability, T/C [17] 7.31% | viability, T/C [18] 10.6% | viability, T/C [19] 0.48% | viability, T/C [20] 0.63% | viability, T/C [21] 0.82% | viability, T/C [22] 0.41% | viability, T/C [23] 0.57% | viability, T/C [24] 3.08% | viability, T/C [25] 0.49% | viability, T/C [26] 0.49% | viability, T/C [27] 0.55% | viability, T/C [28] 0.4% | viability, T/C [29] 1% | viability, T/C [30] 0.92% | viability, T/C [31] 0.3% | viability, T/C [32] 0.27% | viability, T/C [33] 1.54% | viability, T/C [34] 0.29% | viability, T/C [35] 0.35% | viability, T/C [36] 1.18%
inactive: viability, T/C [1] 100% | viability, T/C [2] 103% | viability, T/C [3] 104% | viability, T/C [4] 97.6% | viability, T/C [5] 79.8% | viability, T/C [6] 53.3% | viability, T/C [7] 80.9% | viability, T/C [8] 90.1% | viability, T/C [9] 73.7% | viability, T/C [10] 80% | viability, T/C [11] 71.3% | viability, T/C [12] 55%

CC(Nc1ccc2c(c1)OCCn1cc(N3C(=O)OCC3C(F)F)nc1-2)C(N)=O (stereo not drawn) + CN1CCN(c2cc(C(=O)Nc3cc4cc(-c5cnn(C)c5)ccc4cn3)ccn2)CC1
active: viability, T/C [6] 8.34% | viability, T/C [12] 8.7% | viability, T/C [13] 7.37% | viability, T/C [14] 5.41% | viability, T/C [15] 2.52% | viability, T/C [16] 2.18% | viability, T/C [17] 2.7% | viability, T/C [18] 2.59% | viability, T/C [19] 0.4% | viability, T/C [20] 0.53% | viability, T/C [21] 2.57% | viability, T/C [22] 0.36% | viability, T/C [23] 1.09% | viability, T/C [24] 1.26% | viability, T/C [25] 0.43% | viability, T/C [26] 0.34% | viability, T/C [27] 1.75% | viability, T/C [28] 0.38% | viability, T/C [29] 0.52% | viability, T/C [30] 0.5% | viability, T/C [31] 0.2% | viability, T/C [32] 0.58% | viability, T/C [33] 1.4% | viability, T/C [34] 0.27% | viability, T/C [35] 0.59% | viability, T/C [36] 0.57%
inactive: viability, T/C [1] 86.4% | viability, T/C [2] 60.1% | viability, T/C [3] 37.2% | viability, T/C [4] 22% | viability, T/C [5] 13.6% | viability, T/C [7] 64% | viability, T/C [8] 51.2% | viability, T/C [9] 32.3% | viability, T/C [10] 20.9% | viability, T/C [11] 14.5%
166 nM: IC50 (second compound 0.0316 µM)
101 nM: IC50 (second compound 0.1 µM)
< 31.6 nM: IC50 (second compound 0.316 µM) | IC50 (second compound 1 µM) | IC50 (second compound 3.16 µM) | IC50 (second compound 10 µM)

COc1c(OCCCN2CCOCC2)ccc2c3n(c(=NC(=O)c4cnc(N)nc4)nc12)CCN3 + CN1CCN(c2cc(C(=O)Nc3cc4cc(-c5cnn(C)c5)ccc4cn3)ccn2)CC1
15.8 nM: IC50 (second compound 0.0316 µM)
13.3 nM: IC50 (second compound 0.1 µM)
active: viability, T/C [3] 7% | viability, T/C [4] 4.1% | viability, T/C [8] 11.5% | viability, T/C [9] 8.48% | viability, T/C [10] 3.16% | viability, T/C (second compound 0.316 µM, first compound 0.00316 µM) 5.23% | viability, T/C (second compound 0.316 µM, first compound 0.01 µM) 3.99% | viability, T/C [13] 2.13% | viability, T/C [14] 1.22% | viability, T/C [15] 0.53% | viability, T/C [16] 0.56% | viability, T/C (second compound 1 µM, first compound 0.00316 µM) 0.41% | viability, T/C (second compound 1 µM, first compound 0.01 µM) 0.62% | viability, T/C [19] 1.84% | viability, T/C [20] 0.29% | viability, T/C [21] 0.49% | viability, T/C [22] 1.95% | viability, T/C (second compound 3.16 µM, first compound 0.00316 µM) 0.35% | viability, T/C (second compound 3.16 µM, first compound 0.01 µM) 1.42% | viability, T/C [25] 0.35% | viability, T/C [26] 0.45% | viability, T/C [27] 1.33% | viability, T/C [28] 0.46% | viability, T/C (second compound 10 µM, first compound 0.00316 µM) 0.26% | viability, T/C (second compound 10 µM, first compound 0.01 µM) 0.83% | viability, T/C [31] 0.25% | viability, T/C [32] 0.19% | viability, T/C [33] 0.4% | viability, T/C [34] 1.34%
inactive: viability, T/C (second compound 0.0316 µM, first compound 0.00316 µM) 84.8% | viability, T/C (second compound 0.0316 µM, first compound 0.01 µM) 61.2% | viability, T/C [1] 33.2% | viability, T/C [2] 14.5% | viability, T/C (second compound 0.1 µM, first compound 0.00316 µM) 65.5% | viability, T/C (second compound 0.1 µM, first compound 0.01 µM) 58.2% | viability, T/C [7] 27.1%
< 3.16 nM: IC50 (second compound 0.316 µM) | IC50 (second compound 1 µM) | IC50 (second compound 3.16 µM) | IC50 (second compound 10 µM)
